{
  "source": "ChEMBL document CHEMBL4130350",
  "about": "“Discovery, mechanism and metabolism studies of 2,3-difluorophenyl-linker-containing PARP1 inhibitors with enhanced in vivo efficacy for cancer therapy” (Eur J Med Chem, 2017)",
  "key": {"Mus musculus [1]": {"test_system": "Mus musculus", "test": "Toxicity in nude BALB/cA mouse xenografted with human MDA-MB-436 cells harboring BRCA1 mutant assessed as mortality at 50 mg/kg, po administered once daily for 21 consecutive days measured twice per week", "format": "organism-based", "settings": "in vivo"}, "[2]": {"test": "Drug metabolism in mouse liver microsomes assessed as oxidative metabolite formation at 2 uM up to 60 mins in presence of NADPH by LC-MS/MS analysis", "format": "ADME, microsome", "settings": "1 h"}, "[3]": {"test": "Cmax in Sprague-Dawley rat at 5 mg/kg, iv by LC-MS/MS analysis", "format": "ADME, organism-based", "design": "dose 5 mg/kg, route intravenous", "settings": "in vivo"}, "MDA-MB-436 [4]": {"test_system": "MDA-MB-436", "test": "Induction of apoptosis in human MDA-MB-436 cells assessed as late apoptotic cells at 1 uM after 96 hrs by Annexin V-FITC/propidium iodide double-staining based flow cytometery (reference value: 5.61%)", "format": "functional"}, "MDA-MB-436 [5]": {"test_system": "MDA-MB-436", "test": "Antiproliferative activity against human MDA-MB-436 cells after 7 days by CCK8 or SRB assay", "format": "functional, cell-based", "settings": "MDA-MB-436, 168 h"}, "[6]": {"test": "Apparent permeability across basolateral to apical side in human Caco2 cells after 2 hrs by LC-MS/MS analysis", "format": "ADME, cell-based", "settings": "Caco-2"}, "[7]": {"test": "Protein binding in mouse plasma at 0.5 to 50 uM after 4 hrs by LC-MS/MS analysis", "format": "ADME, cell-free", "settings": "read-out: PPB (converted)"}, "MDA-MB-436 [8]": {"test_system": "MDA-MB-436", "test": "Antitumor activity against human MDA-MB-436 cells harboring BRCA1 mutant xenografted in nude BALB/cA mouse assessed as tumor growth inhibition at 50 mg/kg, po administered once daily for 21 consecutive days measured twice per week", "format": "functional", "settings": "MDA-MB-436, po, read-out: TGI"}, "CAPAN-1 [9]": {"test_system": "CAPAN-1", "test": "Cell cycle arrest in human Capan1 cells assessed as accumulation at G2/M phase at 0.1 uM after 72 hrs by propidium iodide-staining based flow cytometry (reference value: 15.26%)", "format": "functional"}, "[10]": {"target": "T1, Poly [ADP-ribose] polymerase 1 (Homo sapiens, UniProt P09874)", "T1 sequence (P09874 whole entry)": "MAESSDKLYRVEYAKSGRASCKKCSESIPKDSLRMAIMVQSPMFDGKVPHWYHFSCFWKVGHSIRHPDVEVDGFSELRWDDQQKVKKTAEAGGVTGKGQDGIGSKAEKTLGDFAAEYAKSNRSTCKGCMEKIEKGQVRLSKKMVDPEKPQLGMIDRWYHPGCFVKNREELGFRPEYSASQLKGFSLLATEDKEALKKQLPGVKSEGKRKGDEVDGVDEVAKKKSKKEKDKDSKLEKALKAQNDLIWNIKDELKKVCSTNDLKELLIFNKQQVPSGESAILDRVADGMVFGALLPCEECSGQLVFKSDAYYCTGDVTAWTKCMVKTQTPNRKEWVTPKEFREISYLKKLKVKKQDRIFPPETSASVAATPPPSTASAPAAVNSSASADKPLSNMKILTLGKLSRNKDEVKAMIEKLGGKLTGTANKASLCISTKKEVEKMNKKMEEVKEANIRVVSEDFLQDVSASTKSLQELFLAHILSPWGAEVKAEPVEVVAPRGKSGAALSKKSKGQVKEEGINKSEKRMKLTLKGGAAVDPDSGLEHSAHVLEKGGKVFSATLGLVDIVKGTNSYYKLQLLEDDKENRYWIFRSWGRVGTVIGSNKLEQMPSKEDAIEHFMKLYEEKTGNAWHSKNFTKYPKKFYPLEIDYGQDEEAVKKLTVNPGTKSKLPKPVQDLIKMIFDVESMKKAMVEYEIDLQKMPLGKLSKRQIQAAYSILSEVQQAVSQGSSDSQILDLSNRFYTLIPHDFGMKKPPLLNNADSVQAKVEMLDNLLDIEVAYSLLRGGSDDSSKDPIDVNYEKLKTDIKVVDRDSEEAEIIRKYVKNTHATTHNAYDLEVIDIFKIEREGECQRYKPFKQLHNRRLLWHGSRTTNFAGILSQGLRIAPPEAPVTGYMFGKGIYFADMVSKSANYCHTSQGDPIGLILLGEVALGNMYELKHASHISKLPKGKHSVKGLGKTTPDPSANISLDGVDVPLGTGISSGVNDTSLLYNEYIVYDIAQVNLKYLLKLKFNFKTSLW", "test": "Inhibition of PARP1 in human Capan1 cells assessed as increase in formation of phosphorylated ATM foci in cells at 10 uM after 48 hrs by confocal microscopy", "format": "cell-based"}, "Mus musculus [11]": {"test_system": "Mus musculus", "test": "Toxicity in nude BALB/cA mouse xenografted with human Capan1 cells harboring BRCA2 mutant assessed as weight loss at 40 mg/kg, po administered once daily for 21 consecutive days measured twice per week", "format": "organism-based", "settings": "in vivo"}, "CAPAN-1 [12]": {"test_system": "CAPAN-1", "test": "Cell cycle arrest in human Capan1 cells assessed as accumulation at G2/M phase at 10 uM after 72 hrs by propidium iodide-staining based flow cytometry (reference value: 15.26%)", "format": "functional"}, "[13]": {"test": "Elimination half-life in mouse liver microsomes at 2 uM up to 60 mins by LC-MS/MS analysis", "format": "ADME, microsome", "settings": "read-out: beta t1/2"}, "[14]": {"test": "Apparent permeability across apical to basolateral side in human Caco2 cells after 2 hrs by LC-MS/MS analysis", "format": "ADME, cell-based", "settings": "Caco-2"}, "[15]": {"target": "T1, Poly [ADP-ribose] polymerase 1", "test": "Inhibition of PARP1 in BRCA1 deficient human MDA-MB-436 cells assessed as increase in DNA double stranded breaks by measuring gammaH2AX levels after 48 hrs by Western blot analysis", "format": "cell-based"}, "CAPAN-1 [16]": {"test_system": "CAPAN-1", "test": "Cell cycle arrest in human Capan1 cells assessed as accumulation at S phase at 1 uM after 72 hrs by propidium iodide-staining based flow cytometry (reference value: 21.42%)", "format": "functional"}, "MDA-MB-436 [17]": {"test_system": "MDA-MB-436", "test": "Induction of apoptosis in human MDA-MB-436 cells assessed as early apoptotic cells at 1 uM after 96 hrs by Annexin V-FITC/propidium iodide double-staining based flow cytometery (reference value: 1.90%)", "format": "functional"}, "[18]": {"target": "T1, Poly [ADP-ribose] polymerase 1", "test": "Inhibition of PARP1 in BRCA2 deficient human Capan1 cells assessed as increase in DNA double stranded breaks by measuring gammaH2AX levels after 72 hrs by Western blot analysis"}, "CAPAN-1 [19]": {"test_system": "CAPAN-1", "test": "Effect on total ATM protein levels in human Capan1 cells at 0.1 to 1 uM after 48 hrs by Western blot analysis", "format": "ADME, cell-based", "settings": "capan-1, 48 h"}, "CAPAN-1 [20]": {"test_system": "CAPAN-1", "test": "Cell cycle arrest in human Capan1 cells assessed as accumulation at S phase at 0.1 uM after 72 hrs by propidium iodide-staining based flow cytometry (reference value: 21.42%)", "format": "functional"}, "[21]": {"test": "Oral bioavailability in Sprague-Dawley rat at 10 mg/kg by LC-MS/MS analysis", "format": "ADME, organism-based", "settings": "in vivo"}, "CAPAN-1 [22]": {"test_system": "CAPAN-1", "test": "Cell cycle arrest in human Capan1 cells assessed as accumulation at G0/G1 phase at 10 uM after 72 hrs by propidium iodide-staining based flow cytometry (reference value: 63.33%)", "format": "functional"}, "[23]": {"target": "T1, Poly [ADP-ribose] polymerase 1", "test": "Inhibition of PARP1 (unknown origin) by ELISA"}, "[24]": {"test": "Half life in Sprague-Dawley rat at 5 mg/kg, iv by LC-MS/MS analysis", "format": "ADME, organism-based", "settings": "in vivo"}, "[25]": {"test": "AUC in Sprague-Dawley rat at 5 mg/kg, iv by LC-MS/MS analysis", "format": "ADME, organism-based", "settings": "in vivo"}, "[26]": {"test": "Apparent permeability across apical to basolateral side in human Caco2 cells assessed as drug recovery at 4701.8 pmol after 2 hrs by LC-MS/MS analysis", "format": "ADME, cell-based", "settings": "Caco-2, read-out: Drug recovery"}, "[27]": {"test": "Half life in Sprague-Dawley rat at 10 mg/kg, po by LC-MS/MS analysis", "format": "ADME, organism-based", "settings": "in vivo"}, "[28]": {"test": "Retention time in mouse liver microsomes at 2 uM up to 60 mins in presence of NADPH by LC-MS/MS analysis", "format": "ADME, microsome", "settings": "1 h"}, "[29]": {"target": "T1, Poly [ADP-ribose] polymerase 1", "test": "Inhibition of PARP1 in human Capan1 cells assessed as increase in phosphorylated ATM protein levels at 0.1 to 1 uM after 48 hrs by Western blot analysis", "format": "cell-based"}, "[30]": {"test": "Volume of distribution in Sprague-Dawley rat at 5 mg/kg, iv by LC-MS/MS analysis", "format": "ADME, organism-based", "settings": "in vivo"}, "CAPAN-1 [31]": {"test_system": "CAPAN-1", "test": "Cell cycle arrest in human Capan1 cells after 72 hrs by propidium iodide-staining based flow cytometry", "format": "functional"}, "MDA-MB-436 [32]": {"test_system": "MDA-MB-436", "test": "Induction of apoptosis in human MDA-MB-436 cells assessed as early apoptotic cells at 1 uM after 96 hrs in presence of pancaspase inhibitor Z-VAD-FMK by Annexin V-FITC/propidium iodide double-staining based flow cytometery (reference value: 2.32%)", "format": "functional"}, "[33]": {"test": "Drug metabolism in mouse liver microsomes assessed as dehydrogenation at 2 uM up to 60 mins in presence of NADPH by LC-MS/MS analysis", "format": "ADME, microsome", "settings": "1 h"}, "CAPAN-1 [34]": {"test_system": "CAPAN-1", "test": "Antitumor activity against human Capan1 cells harboring BRCA2 mutant xenografted in nude BALB/cA mouse assessed as tumor growth inhibition at 40 mg/kg, po administered once daily for 21 consecutive days measured twice per week", "format": "functional", "settings": "CAPAN-1, po, read-out: TGI"}, "CAPAN-1 [35]": {"test_system": "CAPAN-1", "test": "Cell cycle arrest in human Capan1 cells assessed as accumulation at G2/M phase at 1 uM after 72 hrs by propidium iodide-staining based flow cytometry (reference value: 15.26%)", "format": "functional"}, "MDA-MB-436 [36]": {"test_system": "MDA-MB-436", "test": "Induction of apoptosis in human MDA-MB-436 cells assessed as early apoptotic cells at 0.1 uM after 96 hrs in presence of pancaspase inhibitor Z-VAD-FMK by Annexin V-FITC/propidium iodide double-staining based flow cytometery (reference value: 2.32%)", "format": "functional"}, "[37]": {"test": "Cytotoxicity against BRCA2 deficient Chinese hamster VC8 cells after 3 days by CCK8 or SRB assay", "format": "functional, cell-based", "settings": "Cricetulus griseus, V-C8, 72 h"}, "[38]": {"test": "Clearance in Sprague-Dawley rat at 5 mg/kg, iv by LC-MS/MS analysis", "format": "ADME, organism-based", "settings": "in vivo"}},
  "note": "Activity calls are given as the source filed them. No cut-off for these calls is given here.",
  "data": [
    {"smiles": "N#Cc1cccnc1N1CCN(C(=O)c2cc(Cc3n[nH]c(=O)c4ccccc34)cc(F)c2F)CC1", "values": [
      {"measurement": "Activity", "setting": "Mus musculus [1]", "result": "Non-Toxic"},
      {"measurement": "Drug metabolism", "setting": "[2]", "result": "Metabolite_Detected"},
      {"measurement": "Cmax", "setting": "[3]", "result": 3260, "unit": "ng/mL"},
      {"measurement": "Activity", "setting": "MDA-MB-436 [4]", "result": 32.34, "unit": "%"},
      {"measurement": "IC50", "setting": "MDA-MB-436 [5]", "result": 0.2, "unit": "nM"},
      {"measurement": "Papp B→A at 2 h", "setting": "[6]", "result": 34.1, "unit": "×10⁻⁶ cm/s"},
      {"measurement": "fraction unbound at 4 h, up to 50 µM", "setting": "[7]", "result": 0.012},
      {"measurement": "inhibition in vivo at 50 mg/kg", "setting": "MDA-MB-436 [8]", "result": 94.2, "unit": "%"},
      {"measurement": "Activity", "setting": "CAPAN-1 [9]", "result": 17.33, "unit": "%"},
      {"measurement": "inhibition", "setting": "[10]", "result": "Active"},
      {"measurement": "Activity", "setting": "Mus musculus [11]", "result": "Non-Toxic"},
      {"measurement": "Activity", "setting": "CAPAN-1 [12]", "result": 72.45, "unit": "%"},
      {"measurement": "half-life at 2 µM", "setting": "[13]", "result": 3, "unit": "min"},
      {"measurement": "Papp A→B at 2 h", "setting": "[14]", "result": 6.8, "unit": "×10⁻⁶ cm/s"},
      {"measurement": "inhibition", "setting": "[15]", "result": "Dose-dependent effect"},
      {"measurement": "Activity", "setting": "CAPAN-1 [16]", "result": 27.67, "unit": "%"},
      {"measurement": "Activity", "setting": "MDA-MB-436 [17]", "result": 7.09, "unit": "%"},
      {"measurement": "inhibition", "setting": "[18]", "result": "Dose-dependent effect"},
      {"measurement": "Activity", "setting": "CAPAN-1 [19]", "result": "Non-Toxic"},
      {"measurement": "Activity", "setting": "CAPAN-1 [20]", "result": 26.75, "unit": "%"},
      {"measurement": "bioavailability", "setting": "[21]", "result": 4.7, "unit": "%"},
      {"measurement": "Activity", "setting": "CAPAN-1 [22]", "result": 5.15, "unit": "%"},
      {"measurement": "IC50", "setting": "[23]", "result": 1.3, "unit": "nM"},
      {"measurement": "half-life", "setting": "[24]", "result": 5.3, "unit": "h"},
      {"measurement": "AUC", "setting": "[25]", "result": 1380, "unit": "ng·h/mL"},
      {"measurement": "recovery at 2 h", "setting": "[26]", "result": 91.5, "unit": "%"},
      {"measurement": "half-life", "setting": "[27]", "result": 3, "unit": "h"},
      {"measurement": "Retention_time", "setting": "[28]", "result": 7.8, "unit": "min"},
      {"measurement": "inhibition", "setting": "[29]", "result": "Active"},
      {"measurement": "Vd", "setting": "[30]", "result": 27.5, "unit": "L/kg"},
      {"measurement": "Activity", "setting": "CAPAN-1 [31]", "result": "Dose-dependent effect"},
      {"measurement": "Activity", "setting": "MDA-MB-436 [32]", "result": 6.61, "unit": "%"},
      {"measurement": "Drug metabolism", "setting": "[33]", "result": "Metabolite_Detected"},
      {"measurement": "inhibition in vivo at 40 mg/kg", "setting": "CAPAN-1 [34]", "result": 48.1, "unit": "%"},
      {"measurement": "Activity", "setting": "CAPAN-1 [35]", "result": 49.95, "unit": "%"},
      {"measurement": "Activity", "setting": "MDA-MB-436 [36]", "result": 6.48, "unit": "%"},
      {"measurement": "IC50", "setting": "[37]", "result": 0.003, "unit": "nM"},
      {"measurement": "clearance", "setting": "[38]", "result": 60, "unit": "mL/min/kg"}
    ]}
  ]
}
